Laboratory results published in paper PMC11868595, “Safety, pharmacokinetics and efficacy of HA121-28 in patients with advanced solid tumors and RET fusion-positive non-small-cell lung cancer: a multicenter, open-label, single-arm phase 1/2 trial” (Signal Transduction and Targeted Therapy, 2025).

How the values were obtained:
CFPAC-1 cells = assay: Tumor cell proliferation in vitro; assay type: cell-based
PDGFRβ = PDGFRβ (Homo sapiens, UniProt P09619); assay: Tyrosine kinase inhibition; assay type: biochemical
PDGFRα = PDGFRα (Homo sapiens, UniProt P16234); assay: Tyrosine kinase inhibition; assay type: biochemical
Metabolites in plasma = conditions: rats
Single-dose toxicity = assay type: in vivo, Beagle dogs; conditions: single oral dose 500 and 1000 mg/kg
Procedure: mg/kg. The maximum tolerated dose (MTD) was 500 mg/kg. Gastrointestinal, hepatic, and immune system toxicity may have contributed to the rat deaths.
2.2. Dose expansion phase
[…] To investigate the efficacy of HA121- 28 tablets in patients with advanced solid tumors.
This study is a single- arm, open- label, dose-escalation, and dose-expansion phase 1 clinical studywith single and multiple dosing.

Rat plasma kinetics = assay type: in vivo
FGFR4 = FGFR4 (Homo sapiens, UniProt P22455); assay: Tyrosine kinase inhibition; assay type: biochemical
Plasma protein binding = assay type: in vitro ADME; conditions: monkeys

FGFR4, sequence (P22455 22-802): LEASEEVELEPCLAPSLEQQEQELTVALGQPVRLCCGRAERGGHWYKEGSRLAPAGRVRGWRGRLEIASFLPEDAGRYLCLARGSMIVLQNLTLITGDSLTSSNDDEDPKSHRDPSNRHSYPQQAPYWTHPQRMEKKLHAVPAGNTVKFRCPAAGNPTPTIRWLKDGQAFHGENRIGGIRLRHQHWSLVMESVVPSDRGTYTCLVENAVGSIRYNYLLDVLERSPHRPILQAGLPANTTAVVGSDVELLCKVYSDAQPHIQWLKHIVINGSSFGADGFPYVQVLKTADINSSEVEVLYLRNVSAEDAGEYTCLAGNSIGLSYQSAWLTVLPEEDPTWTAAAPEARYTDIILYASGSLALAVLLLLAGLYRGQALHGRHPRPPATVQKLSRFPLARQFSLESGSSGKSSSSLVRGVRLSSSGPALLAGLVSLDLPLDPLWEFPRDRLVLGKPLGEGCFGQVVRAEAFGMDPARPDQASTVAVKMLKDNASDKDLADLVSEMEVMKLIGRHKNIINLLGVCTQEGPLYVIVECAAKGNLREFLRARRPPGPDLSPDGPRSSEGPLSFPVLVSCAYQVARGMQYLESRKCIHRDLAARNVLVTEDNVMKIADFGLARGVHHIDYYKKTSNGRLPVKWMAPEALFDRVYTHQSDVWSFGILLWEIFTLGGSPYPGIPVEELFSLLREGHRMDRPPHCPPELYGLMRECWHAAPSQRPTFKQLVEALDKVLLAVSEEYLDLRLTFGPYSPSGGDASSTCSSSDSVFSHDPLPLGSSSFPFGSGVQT
PDGFRα, sequence (P16234 24-1089): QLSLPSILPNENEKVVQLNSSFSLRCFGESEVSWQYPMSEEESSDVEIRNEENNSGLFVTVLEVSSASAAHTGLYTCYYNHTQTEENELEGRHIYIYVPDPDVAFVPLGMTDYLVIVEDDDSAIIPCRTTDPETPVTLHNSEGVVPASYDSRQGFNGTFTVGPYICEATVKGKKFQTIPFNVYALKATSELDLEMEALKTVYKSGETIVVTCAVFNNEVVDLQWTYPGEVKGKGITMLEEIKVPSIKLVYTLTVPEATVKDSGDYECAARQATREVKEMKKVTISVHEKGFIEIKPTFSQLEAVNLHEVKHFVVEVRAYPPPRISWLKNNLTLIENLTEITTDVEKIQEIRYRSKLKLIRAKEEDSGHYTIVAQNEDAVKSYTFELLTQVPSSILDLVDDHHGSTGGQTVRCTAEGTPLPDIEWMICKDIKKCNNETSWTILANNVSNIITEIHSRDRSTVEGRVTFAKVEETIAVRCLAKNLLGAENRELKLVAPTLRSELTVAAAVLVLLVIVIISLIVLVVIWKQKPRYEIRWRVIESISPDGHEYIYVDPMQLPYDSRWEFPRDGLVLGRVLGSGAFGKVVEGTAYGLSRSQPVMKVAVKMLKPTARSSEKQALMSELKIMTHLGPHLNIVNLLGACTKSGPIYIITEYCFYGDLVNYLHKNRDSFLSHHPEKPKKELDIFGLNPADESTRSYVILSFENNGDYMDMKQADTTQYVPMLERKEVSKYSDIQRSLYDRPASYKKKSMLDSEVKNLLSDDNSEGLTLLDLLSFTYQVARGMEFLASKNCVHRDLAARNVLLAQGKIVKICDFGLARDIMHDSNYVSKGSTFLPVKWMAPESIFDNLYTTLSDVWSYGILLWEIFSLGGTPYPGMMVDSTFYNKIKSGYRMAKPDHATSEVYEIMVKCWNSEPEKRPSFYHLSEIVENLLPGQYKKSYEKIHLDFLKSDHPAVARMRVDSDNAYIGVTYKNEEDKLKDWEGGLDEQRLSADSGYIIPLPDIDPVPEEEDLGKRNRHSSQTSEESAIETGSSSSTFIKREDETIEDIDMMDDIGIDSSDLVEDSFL
PDGFRβ, sequence (P09619 33-1106): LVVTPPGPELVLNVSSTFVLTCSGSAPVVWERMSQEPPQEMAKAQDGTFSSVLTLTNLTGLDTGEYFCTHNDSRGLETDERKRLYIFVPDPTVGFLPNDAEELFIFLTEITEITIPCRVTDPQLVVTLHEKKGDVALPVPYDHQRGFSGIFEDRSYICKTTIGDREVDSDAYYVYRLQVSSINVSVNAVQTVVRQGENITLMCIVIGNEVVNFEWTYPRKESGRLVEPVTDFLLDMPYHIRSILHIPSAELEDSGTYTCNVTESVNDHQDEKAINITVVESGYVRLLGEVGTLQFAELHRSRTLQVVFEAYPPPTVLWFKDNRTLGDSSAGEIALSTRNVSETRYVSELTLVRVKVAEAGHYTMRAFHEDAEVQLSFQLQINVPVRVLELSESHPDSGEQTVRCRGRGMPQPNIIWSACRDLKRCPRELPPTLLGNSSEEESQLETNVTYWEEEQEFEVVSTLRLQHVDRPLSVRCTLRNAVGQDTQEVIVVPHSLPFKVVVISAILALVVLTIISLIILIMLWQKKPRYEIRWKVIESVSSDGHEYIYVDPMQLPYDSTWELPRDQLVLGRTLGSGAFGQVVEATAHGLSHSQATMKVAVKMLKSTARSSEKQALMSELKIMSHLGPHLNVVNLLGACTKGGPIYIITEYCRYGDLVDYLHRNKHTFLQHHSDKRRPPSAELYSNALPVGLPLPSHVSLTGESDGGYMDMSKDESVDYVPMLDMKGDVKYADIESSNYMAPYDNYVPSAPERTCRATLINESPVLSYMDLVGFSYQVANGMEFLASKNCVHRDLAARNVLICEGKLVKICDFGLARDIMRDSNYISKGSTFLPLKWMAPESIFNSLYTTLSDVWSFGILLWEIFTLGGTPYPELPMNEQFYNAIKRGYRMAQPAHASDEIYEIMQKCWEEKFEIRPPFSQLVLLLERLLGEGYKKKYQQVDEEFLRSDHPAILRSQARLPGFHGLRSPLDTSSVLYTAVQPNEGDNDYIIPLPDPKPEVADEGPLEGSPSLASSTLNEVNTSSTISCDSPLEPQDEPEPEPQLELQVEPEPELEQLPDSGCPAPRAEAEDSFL

Question: Which results are given for `COc1cc2c(Nc3ccc(Br)cc3F)ncnc2cc1OCCCCN(C)C.Cl.Cl` [HA121-28, N-(4-bromo-2-fluorophenyl)-7-(4-(dimethylamino)butoxy)-6-methoxy quinazolin-4-amine dihydrochloride]?
Answer: IC50 (CFPAC-1 cells): 207 ± 38.3 nM; IC50 (PDGFRβ): 165 nM; IC50 (PDGFRα): 58.7 nM; number of metabolites found in plasma (Metabolites in plasma): 7; MTD (Single-dose toxicity): 1000 mg/kg; AUC0-96h (Rat plasma kinetics; 7 consecutive days (10 mg/kg)): 8420 ± 1720 ng·h/mL; AUC0-∞ (Rat plasma kinetics; 7 consecutive days (10 mg/kg)): 9690 ± 2310 ng·h/mL; CL (Rat plasma kinetics; 7 consecutive days (10 mg/kg)): 39.3 ± 6.53 mL/min/kg; Cmax (Rat plasma kinetics; 7 consecutive days (10 mg/kg)): 284 ± 56.8 ng/mL; MRT0-∞ (Rat plasma kinetics; 7 consecutive days (10 mg/kg)): 40.0 ± 7.30 h; Tmax (Rat plasma kinetics; 7 consecutive days (10 mg/kg)): 6.00 ± 0.00 h; Vd (Rat plasma kinetics; 7 consecutive days (10 mg/kg)): 110 ± 24.9 L/kg; t1/2 (Rat plasma kinetics; 7 consecutive days (10 mg/kg)): 32.9 ± 7.77 h; AUC0-96h (Rat plasma kinetics; high dose (20 mg/kg)): 6460 ± 849 ng·h/mL; AUC0-∞ (Rat plasma kinetics; high dose (20 mg/kg)): 6760 ± 1040 ng·h/mL; CL (Rat plasma kinetics; high dose (20 mg/kg)): 50.3 ± 8.05 mL/min/kg; Cmax (Rat plasma kinetics; high dose (20 mg/kg)): 288 ± 38.5 ng/mL; MRT0-96h (Rat plasma kinetics; high dose (20 mg/kg)): 22.8 ± 2.85 h; MRT0-∞ (Rat plasma kinetics; high dose (20 mg/kg)): 27.3 ± 5.24 h; Tmax (Rat plasma kinetics; high dose (20 mg/kg)): 5.00 ± 1.55 h; Vd (Rat plasma kinetics; high dose (20 mg/kg)): 96.8 ± 8.19 L/kg; t1/2 (Rat plasma kinetics; high dose (20 mg/kg)): 22.8 ± 5.00 h; AUC0-96h (Rat plasma kinetics; intravenous (5 mg/kg)): 1440 ± 214 ng·h/mL; AUC0-∞ (Rat plasma kinetics; intravenous (5 mg/kg)): 1470 ± 232 ng·h/mL; C5min (Rat plasma kinetics; intravenous (5 mg/kg)): 246 ± 43.1 ng/mL; CL (Rat plasma kinetics; intravenous (5 mg/kg)): 57.8 ± 8.8 mL/min/kg; MRT0-96h (Rat plasma kinetics; intravenous (5 mg/kg)): 17.2 ± 1.68 h; MRT0-∞ (Rat plasma kinetics; intravenous (5 mg/kg)): 19.0 ± 2.82 h; Vd (Rat plasma kinetics; intravenous (5 mg/kg)): 90.9 ± 12.3 L/kg; t1/2 (Rat plasma kinetics; intravenous (5 mg/kg)): 18.5 ± 3.86 h; AUC0-96h (Rat plasma kinetics; low dose (5 mg/kg)): 1350 ± 419 ng·h/mL; AUC0-∞ (Rat plasma kinetics; low dose (5 mg/kg)): 1390 ± 438 ng·h/mL; CL (Rat plasma kinetics; low dose (5 mg/kg)): 65.2 ± 19.8 mL/min/kg; Cmax (Rat plasma kinetics; low dose (5 mg/kg)): 58.7 ± 12.7 ng/mL; MRT0-96h (Rat plasma kinetics; low dose (5 mg/kg)): 19.2 ± 2.41 h; MRT0-∞ (Rat plasma kinetics; low dose (5 mg/kg)): 21.5 ± 3.23 h; Tmax (Rat plasma kinetics; low dose (5 mg/kg)): 5.00 ± 1.10 h; Vd (Rat plasma kinetics; low dose (5 mg/kg)): 93.5 ± 15.9 L/kg; t1/2 (Rat plasma kinetics; low dose (5 mg/kg)): 17.4 ± 3.52 h; AUC0-96h (Rat plasma kinetics; medium dose (10 mg/kg)): 3200 ± 629 ng·h/mL; AUC0-∞ (Rat plasma kinetics; medium dose (10 mg/kg)): 3300 ± 696 ng·h/mL; CL (Rat plasma kinetics; medium dose (10 mg/kg)): 52.5 ± 11.6 mL/min/kg; Cmax (Rat plasma kinetics; medium dose (10 mg/kg)): 147 ± 26.6 ng/mL; MRT0-96h (Rat plasma kinetics; medium dose (10 mg/kg)): 21.8 ± 2.80 h; MRT0-∞ (Rat plasma kinetics; medium dose (10 mg/kg)): 24.7 ± 4.71 h; Tmax (Rat plasma kinetics; medium dose (10 mg/kg)): 4.50 ± 1.22 h; Vd (Rat plasma kinetics; medium dose (10 mg/kg)): 82.8 ± 9.31 L/kg; t1/2 (Rat plasma kinetics; medium dose (10 mg/kg)): 18.8 ± 3.60 h; F (oral bioavailability) (Rat plasma kinetics; rat): 93.8%; IC50 (FGFR4): 953 nM; plasma protein binding rate (Plasma protein binding): 92.5±0.331%
